Tests used:
Rap1 geranylgeranylation = Rap1 geranylgeranylation in H-Ras transformed NIH 3T3 cells (Western blot); format: cell-based, murine; details: H-Ras/3T3 cells
Protocol: (§1) Human MDA-MB-468 and MDA-MB-231 breast cancer cells and murine NIH 3T3 cells were obtained from the ATCC and cultured in DMEM medium. Human SK-Br3 and BT-474 breast cancer cells (ATCC) were cultured in McCoy's 5a medium and Hybri-Care medium, respectively. Mouse embryonic fibroblast (MEF) cells from p27 wild-type and p27 null mice were grown in DMEM. All media were supplemented with 10% fetal calf serum, 10 units/ml penicillin, and 10 μg/ml streptomycin. Subconfluent cells were treated with different concentrations of GGTI, FTI or DMSO vehicle for specific time periods. After treatment, cells were harvested by trypsinization.
To prepare whole cell lysates, cells were trypsinized, washed with phosphate buffered saline (PBS) twice, and lysed in 30 mM Hepes, pH 7.5, 10 mM NaCl, 5 mM MgCl2, 25 mM NaF, 1 mM EGTA, 1% Triton-X-100, 10% glycerol, protease inhibitor cocktail, 2 mM PMSF, 2 mM Na3VO4, and 6.4 mg/ml p-nitrophenylphosphate. Lysates were cleared by centrifugation at 12,000×g for 15 min, and the supernatants were collected as whole cell extracts. The protein concentration was determined by the Bradford assay. […] Select bands were quantified using AlphaEaseFC densitometry software (AlphaInnotech, San Leandro, Calif.). […]

[1] = test system: MDA-MB-468 breast cancer cells; test: Cell cycle analysis in MDA-MB-468 cells; format: cell-based, human; details: 50 μM, control 51%
Protocol: Cell cycle analysis based on DNA content was performed as described previously. Liang, J., et al., PKB/Akt phosphorylates p27, impairs nuclear import of p27 and opposes p27-mediated G1 arrest, Nat Med 8:1153-60 (2002). At each time point, cells were harvested, counted, and washed twice with PBS. Cells (2-3×10^6) were suspended in 0.5 ml PBS, fixed in 5 ml of 70% ethanol overnight at −20° C., centrifuged, re-suspended again in 1 ml of propidium iodide staining solution (50 μg/ml propidium iodide, 100 units/ml RNase A and 1 mg/ml of glucose in PBS), and incubated at room temperature for 30 min. The cells were then analyzed for cell cycle distribution using FACScan (BD Biosciences) and ModFit LT cell cycle analysis software (Verity Software, Topsham, Me.).

[2] = test system: MDA-MB-231 breast cancer tumors; test: Anti-tumor activity in the nude mouse tumor xenograft model; format: in vivo, nude mice; details: 100 mg/kg daily i.p.
Protocol: Nude mice (nu/nu, Charles River, Wilmington, Mass.) were maintained in accordance with the Institutional Animal Care and Use Committee (IACUC) procedures and guidelines. MDA-MB-231 cells were harvested via trypsinization, pelleted at 805×g for 5 min, and re-suspended in a 50:50 mixture of sterile PBS and Matrigel (BD Biosciences) at 10×10^6 cells per 100 μl. A volume of 100 μl (˜10×10^6 cells) was injected orthotopically into the upper mammary fat pads of nude mice. The tumor xenografts were monitored by electronic caliper measurements and tumor volume (V) was calculated using the formula V=W^2L/2, where width (W) is […]. When the tumors reached ˜100 mm^3, the animals were randomized and injected intraperiteoneally daily with vehicle (70% DMSO), or 100 mg/kg GGTI-2417 or GGTI-2418, or every third day with GGTI-2418 (200 mg/kg. Tumors were measured every third day for 12-18 days.

[3] = test system: MDA-MB-231, SK-Br3 and BT-474 breast cancer cells; test: Effects in other human breast cancer cell lines; format: cell-based; details: 50 μM; all three cell lines
Protocol: as §1
To prepare whole cell lysates, cells were trypsinized, washed with phosphate buffered saline (PBS) twice, and lysed in 30 mM Hepes, pH 7.5, 10 mM NaCl, 5 mM MgCl2, 25 mM NaF, 1 mM EGTA, 1% Triton-X-100, 10% glycerol, protease inhibitor cocktail, 2 mM PMSF, 2 mM Na3VO4, and 6.4 mg/ml p-nitrophenylphosphate. […] The protein concentration was determined by the Bradford assay. […] Select bands were quantified using AlphaEaseFC densitometry software (AlphaInnotech, San Leandro, Calif.).
Adherent cells were harvested by trypsinization and diluted with 0.4% Trypan Blue dye and counted on a hemacytometer. Cells excluding the dye were scored as live cells, whereas cells absorbing the dye were scored as dead cells. […]

COC(=O)[C@H](CC(C)C)NC(=O)N1CCN(Cc2nc[nH]c2C)C(=O)[C@@H]1Cc1ccccc1 [GGTI-2417]
selectivity for inhibition of cellular GGTase I compared to FTase (Rap1 geranylgeranylation): > 125 fold | IC50 (Rap1 geranylgeranylation; 48 h, read-out: IC50, inhibition of Rap1 geranylgeranylation): 0.4 ± 0.1 µM | fraction of cells in G0/G1 [1]: 78% | tumor growth inhibition [2]: 76% | cell proliferation [3]: inhibited cell proliferation | p27 protein levels [3]: induced p27 protein levels
